Consider ten molecules from US20200362024A1, “BIOLOGICAL MATERIALS AND USES THEREOF” (IMPERIAL INNOVATIONS LIMITED, priority 2009, published 2020).

Experiment [1] concerns MyD88 deficient mouse embryonic fibroblasts. In words: Cytokine synthesis in mouse embryonic fibroblasts from MyD88 deficient mice. Type of experiment: cell-based. Particulars: 24 h; FBG 1 μM, PAM3, LPS, TNFα 100 ng/ml, IL-1 5 ng/ml. The source says: (§1) Homozygous MyD88 deficient mice on a C57BL/6 background were provided by the Sanger Institute (Cambridge, UK). Age matched congenic inbred wild type C57B/L6 mice were obtained from Charles River (Margate, UK). For isolation of mouse embryo fibroblasts one female aged 8-10 weeks was mated with two males aged 8-10 weeks. For isolation of bone marrow derived macrophages mice were female and between 10-12 weeks of age at the time of experimentation.
MEFs express high levels of mRNA of all 9 murine TLRs and are specifically and highly responsive to TLR ligand activation. […] Fibroblasts were cultured at 2×10^4 cells/well in DMEM containing 10% (v/v) FBS and 100 U/ml penicillin/streptomycin in 96-well tissue culture plates for 24 hours before stimulation.
(§2) Cells were incubated for 24 hours at 37° C. with the indicated doses of tenascin-C and recombinant tenascin-C fragments (1.0 μM-1.0 nM). Cells were also stimulated where indicated with LPS (1 ng/ml for human macrophages, 10 ng/ml for human fibroblasts, RA membrane cells and HEKs, 100 ng/ml for MEFS and BMDMs and 10 ng/ml for HEKS), PAM3 (10 ng/ml for human macrophages, human fibroblasts, and HEKs, 100 ng/ml for MEFs and BMDMs), murine IL-1 (5 ng/ml for MEFS) and murine TNF-α (100 ng/ml for MEFS). Unless specifically stated otherwise rough LPS was used for in vitro studies.
(§3) Supernatants were subsequently examined for the presence of the cytokines TNF-α, IL-6, and IL-8 by enzyme-linked immunosorbent assay (ELISA) according to the manufacturer's instructions. Absorbance was read on a spectrophotometric ELISA plate reader (Labsystems Multiscan Biochromic, Vantaa, Finland) and analyzed using the Ascent software program (Thermo Labsystems, Altrincham, UK).

Experiment [2] deals with TLR2 or TLR4 deficient embryonic fibroblasts and bone marrow derived macrophages. In words: Cytokine synthesis in embryonic fibroblasts and macrophages from TLR2 or TLR4 deficient mice. It is filed as cell-based, mouse. The note with it: 24 h.
From the text: as §1, with “Homozygous TLR2 and TLR4 deficient mice on a C57BL/6 background (an inbred strain of mice with a black coat) were obtained from B&K Universal (Hull, UK) Hoshino (1999) and Takeuchi (1999). Homozygous” for “Homozygous”
MEFs express high levels of mRNA of all 9 murine TLRs and are specifically and highly responsive to TLR ligand activation. […] MEFs were isolated from d13 embryos harvested from age-matched, pregnant female wild type, TLR2, TLR4 and null mice (as described in Todaro (1963)). Fibroblasts were cultured at 2×10^4 cells/well in DMEM containing 10% (v/v) FBS and 100 U/ml penicillin/streptomycin in 96-well tissue culture plates for 24 hours before stimulation.
BMDMs were derived by aspirating the femurs of age matched female wild type, TLR2 and TLR4 null mice as described in Butler (1999)) and culturing the cells for 7 days in DMEM, 20% (v/v) FBS, 10 ml/L (v/v) antibiotic-antimycotic solution PSA, 50 μM Mercaptoethanol and 10 ng/ml M-CSF. Macrophages were then cultured at 1×10^5 cells/well in DMEM, 20% (v/v) FBS, 10 ml/L (v/v) antibiotic-antimycotic solution PSA, 50 μM β-Mercaptoethanol in 96-well tissue culture plates for 24 hours before stimulation.
as §2, §3

Experiment [3] concerns human macrophages and RA synovial fibroblasts. The experiment can be described thus: Ligand induced cytokine synthesis after pre-incubation with function blocking antibodies or inhibitors. It is filed as cell-based. The note with it: 10 μg/ml IL1 receptor antagonist pre-incubation. How it is done:
as §2
(§4) Where stated, cells were pre-incubated with 10 μg/ml anti-CD14 antibody, 10 μg/ml IL1 receptor antagonist, 10 μg/ml anti-TLR2 antibody, 25 μg/ml anti-TLR4 antibody, 10 or 25 μg/ml isotype control antibody, 25 μg/ml polymyxin B, or 1 μg/ml msbB LPS, for 30 minutes at 37° C. before stimulation. Where stated, recombinant tenascin-C and FBG, and LPS were boiled for 15 minutes before addition to cells
as §3

The subject of experiment [4] is human macrophages. The experiment can be described thus: FBG or LPS induced cytokine synthesis in human macrophages pre-incubated with FBG peptides. The note with it: pre-incubated with 20 μM peptide for 15 min; for FBG mediated cytokine synthesis (block): then 1.0 μM FBG 24 h. It is filed as cell-based. As to the method: (§5) After incubation the tissue was pipetted through a nylon mesh into a sterile beaker. The cells were then washed three times in complete medium (RPMI 1640 supplemented with 10% FCS). RA synovial fibroblasts were isolated from the mixed population of RA membrane cells by selection in DMEM (Bio-Whittaker) supplemented with 10% FBS, […], 100 U/ml penicillin, and streptomycin. Human monocytes were isolated from peripheral blood (London Blood Bank) and macrophages were derived from monocytes after differentiation for 4 days with 100 ng/ml of M-CSF.
(§6) Macrophages were cultured at 1×10^5 cells/well in RPMI 1640 containing 5% (v/v) FBS and 100 U/ml penicillin/streptomycin in 96-well tissue culture plates for 24 h before stimulation. Cells were incubated for 24 h at 37° C. with no addition, 1.0 μM FBG, 1 ng/ml LPS or 1 or 20 μM FBG peptide. Where stated, cells were pre-incubated with 20 μM FBG peptides for 15 min.
(§7) Supernatants were examined for the presence of the cytokines TNF-α, IL-6, and IL-8 by enzyme-linked immunosorbent assay (ELISA) according to the manufacturer's instructions (R&D systems). Absorbance was read on a spectrophotometric ELISA plate reader (Labsystems Multiscan Biochromic, Vantaa, Finland) and analyzed using the Ascent software program (Thermo Labsystems, Altrincham, UK).

Experiment [5] deals with RA membrane cells. The experiment can be described thus: Blockade of spontaneous cytokine synthesis in RA synovial membrane cultures by FBG peptides. It is filed as cell-based, human. Particulars: for inhibition of cytokine synthesis: highest concentrations, dose dependent (25, 100 or 250 μM, TNF & IL8, FIG. 16); for TNF and IL8 synthesis (inhibition): spontaneous cytokine synthesis, 24 h with peptide. How it is done: RA membrane cells (representing a mixed population of all synovial cell types) were isolated from synovial membranes obtained from patients undergoing joint replacement surgery (Brennan (1989)). Synovial membrane tissue was digested in RPMI 1640 (GIBCO) containing 5% fetal calf serum (FCS) (GIBCO), 5 mg/ml collagenase type IV (Sigma) and 0 15 mg/ml DNAse type I (Sigma) and incubated at 37° C. for 2 h.
Immediately after isolation, RA membrane cells were cultured at 1×10^5 cells/well in RPMI 1640 containing 10% (v/v) FBS and 100 U/ml penicillin/streptomycin in 96-well tissue culture plates. Cells were incubated for 24 h at 37° C. with no addition, buffer control (PBS, 1% BSA, 0.01% NaN3), or with 25 μm, 100 μM or 250 μM of each FBG spanning peptide.
as §7

In experiment [6] the test system is primary human macrophages. The experiment can be described thus: Cytokine synthesis in primary human macrophages stimulated with tenascin-C or its domains. It is filed as cell-based. How it is done: Human monocytes were isolated from peripheral blood (London Blood Bank) and macrophages were derived from monocytes after differentiation for 4 days with 100 ng/ml of M-CSF as previously described (Foxwell (1998)).
(§8) Immediately after isolation, RA membrane cells and macrophages were cultured at 1×10^5 cells/well in RPMI 1640 containing 10% (v/v) FBS and 100 U/ml (Units/ml) penicillin/streptomycin in 96-well tissue culture plates for 24 hours before stimulation. Synovial fibroblasts (used only at either passage number 2 or 3) were cultured at 1×10^4 cells/well in DMEM containing 10% (v/v) FBS and 100 U/ml penicillin/streptomycin in 96-well tissue culture plates for 24 hours before stimulation.
as §2, §4, §3

In experiment [7] the test system is RA synovial fibroblasts. In words: Cytokine synthesis in RA synovial fibroblasts stimulated with tenascin-C, FBG or LPS. Type of experiment: cell-based, human. The note with it: 24 h.
From the text: RA membrane cells (representing a mixed population of all synovial cell types) were isolated from synovial membranes obtained from patients undergoing joint replacement surgery as previously described (Brennan (1989)). RA synovial fibroblasts were isolated from the mixed population of RA membrane cells as previously described (Brennan (1989)). The study was approved by the local Trust ethics committee (Riverside NHS Research Committee), and waste tissue (synovium after joint replacement surgery) was obtained only after receiving signed informed consent from the patient and anonymyzing the tissue to protect patient identity.
as §8, §2, §4, §3

The subject of experiment [8] is primary human macrophages. In words: Cytokine synthesis by primary human macrophages stimulated with FBG peptides. It is filed as cell-based. The note with it: 1 or 20 μM peptide, 24 h (IL8, FIG. 17). How it is done:
as §5, §6, §7

For the molecule TNF-α [reference compound], in experiment [1], the “cytokine synthesis in embryonic fibroblasts with targeted deletion of MyD88” value (shortened to “cytokine synthesis … of MyD88”) is listed as “unaffected”.
For the molecule Pam3Cys-Ser-Lys4 [reference compound], in experiment [2], the “cytokine synthesis in cells from TLR2 deficient mice” value is recorded as “unresponsive” and the “cytokine synthesis in cells from TLR4 deficient mice” value is “did respond”. The “cytokine synthesis … of MyD88” value in experiment [1] is given as “abolished”.
On to “IL-1 receptor antagonist: IL-1 receptor antagonist from R&D Systems”, for which the “inhibition of FBG induction of cytokines” value in experiment [3] is “did not inhibit”.
As for “WYRNCHRVNLMGRYGDNNHSQGVNWFHWKG [Peptide 8]”, the “cytokine synthesis in response to LPS (block)” value in experiment [4] (then 1 ng/ml LPS 24 h) is on record as “blocked”. Besides, the “FBG mediated cytokine synthesis (block)” value in experiment [4] was “blocked”. Also, in experiment [5], the “inhibition of cytokine synthesis” value is reported as 56%; the “TNF and IL8 synthesis (inhibition)” value is “inhibited”.
Consider “tenascin-C: recombinant full-length human tenascin-C purified from HEK293 conditioned medium”, for which the “production of TNF-α, IL-6 and IL-8 in human macrophages” value in experiment [6] (1.0 μM-1.0 nM, 24 h) was “dose dependently stimulated”. Further, the “cytokine stimulation: heat sensitivity and effect of polymyxin B” value in experiment [6] (boiled 15 minutes, 25 μg/ml polymyxin B pre-incubation, human macrophages and synovial fibroblasts) is “heat sensitive and unaffected by the LPS inhibitor, polymyxin B”. For the same molecule, the “TNF-α synthesis in fibroblasts” value in experiment [7] is listed as “Neither LPS nor tenascin-C induced”. For the same molecule, in experiment [7] (LPS 10 ng/ml), the “IL-6 synthesis in RA synovial fibroblasts” value was “only induced IL-6 synthesis” and the “IL-8 synthesis in RA synovial fibroblasts” value is on record as “only induced IL-6 synthesis”.
Regarding “KTRYKLKVEGYSGTAGDSMAYHNGRSFST [Peptide 6]”, the “cytokine synthesis (induction)” value in experiment [8] is “induced cytokine synthesis in a dose dependent manner”.
Same read-out and setting: the same measure for “TIGLLYPFPKDCSQAMLNGDTTSGLYTIYL [Peptide 1]”: “induced cytokine synthesis in a dose dependent manner”.
For “WIVFLRRKNGRENFYQNWKAYAAGFGDRRE [Peptide 3]”, in experiment [5], the “inhibition of cytokine synthesis” value is listed as 95%; the “TNF and IL8 synthesis (inhibition)” value is on record as “inhibited”.
Consider “ELRVDLRDHGETAFAVYDKFSVGDAKTRYK [Peptide 5]”, for which, in experiment [4], the “FBG mediated cytokine synthesis (block)” value is on record as “specifically blocked”. The “cytokine synthesis (induction)” value in experiment [8] was “induced cytokine synthesis in a dose dependent manner”. Further, the “effect on TNF synthesis” value in experiment [5] (RA membrane cells, 24 h) is recorded as “no effect”. In addition, the “maximal inhibition of IL8 synthesis” value in experiment [5] (RA membrane cells, dose dependent) amounted to 81%.

B1: IL-1: murine IL-1 used to stimulate MEFs (protein, UniProt P10749 118-269, looked up)
Interleukin-1 beta: VPIRQLHYRLRDEQQKSLVLSDPYELKALHLNGQNINQQVIFSMSFVQGEPSNDKIPVALGLKGKNLYLSCVMKDGTPTLQLESVDPKQYPKKKMEKRFVFNKIEVKSKVEFESAEFPNWYISTSQAEHKPVFLGNNSGQDIIDFTMESVSS
On to B1, for which, in experiment [2], the “cytokine synthesis in cells from TLR2 deficient mice” value was “responsive” and the “cytokine synthesis in cells from TLR4 deficient mice” value is “did respond”. The “cytokine synthesis … of MyD88” value in experiment [1] was “abolished”.
